Laboratory results published in patent publication US10479780B2, “Aminopyrazole derivatives” (Chugai Seiyaku Kabushiki Kaisha, priority 2015, dated 2019).
pIC50: −log10 of the molar value. Like-named read-outs stand apart in the source and are kept apart here.

Legend:
Assay type in all cases: biochemical
human Lck enzyme = target: T1, human Lck enzyme (Homo sapiens, UniProt P06239); assay: Lck enzyme inhibitory activity (time-resolved fluorometry, biotinylated peptide phosphorylation); details: read-out: LCK_IC50
T1 construct: purchased Carna Biosciences, Inc. 08-170
Procedure, shortened: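 Readout pairs a europium cryptate-labelled anti-phosphotyrosine antibody with XL665-streptavidin, measured by time-resolved fluorescence. IC50 derived from percent inhibition against untreated controls.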

human Yes1 enzyme = target: T2, human Yes1 enzyme (Homo sapiens, UniProt P07947); assay: Yes1 enzyme inhibitory activity (time-resolved fluorometry, biotinylated peptide phosphorylation); details: read-out: YES_IC50
T2 construct: made in house
Procedure, shortened: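 Inhibition was expressed against a compound-free control to give IC50, using TR-FRET read-out (Eu-cryptate anti-pTyr antibody, streptavidin-XL665).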

human Src enzyme = target: T3, human Src enzyme (Homo sapiens, UniProt P12931); assay: Src enzyme inhibitory activity (time-resolved fluorometry, biotinylated peptide phosphorylation); details: read-out: SRC_IC50
T3 construct: purchased Carna Biosciences, Inc. 08-173
Procedure, shortened: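 Compounds were tested for blocking tyrosine phosphorylation of a biotinylated peptide substrate by recombinant human Src. Phosphorylated product was quantified by time-resolved fluorometry using europium cryptate and XL665 conjugates, and IC50 was calculated against the compound-free control.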

[1] = biotinylated peptide phosphorylation

T3 sequence (P12931 whole entry): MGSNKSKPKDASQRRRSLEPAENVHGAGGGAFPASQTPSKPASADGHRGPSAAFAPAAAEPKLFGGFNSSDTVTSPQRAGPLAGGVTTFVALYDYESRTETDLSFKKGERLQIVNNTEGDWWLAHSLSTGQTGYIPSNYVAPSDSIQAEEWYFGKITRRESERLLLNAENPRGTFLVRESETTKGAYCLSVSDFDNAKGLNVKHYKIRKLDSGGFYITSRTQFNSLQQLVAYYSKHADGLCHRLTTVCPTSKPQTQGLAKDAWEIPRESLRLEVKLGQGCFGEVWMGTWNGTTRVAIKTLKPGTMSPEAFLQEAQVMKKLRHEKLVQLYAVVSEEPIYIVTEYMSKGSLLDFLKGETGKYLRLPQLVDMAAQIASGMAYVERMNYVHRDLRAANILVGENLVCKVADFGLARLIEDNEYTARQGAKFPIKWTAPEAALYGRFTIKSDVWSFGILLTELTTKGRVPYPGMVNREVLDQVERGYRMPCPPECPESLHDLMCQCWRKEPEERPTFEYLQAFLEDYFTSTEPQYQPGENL
T1 sequence (P06239 whole entry): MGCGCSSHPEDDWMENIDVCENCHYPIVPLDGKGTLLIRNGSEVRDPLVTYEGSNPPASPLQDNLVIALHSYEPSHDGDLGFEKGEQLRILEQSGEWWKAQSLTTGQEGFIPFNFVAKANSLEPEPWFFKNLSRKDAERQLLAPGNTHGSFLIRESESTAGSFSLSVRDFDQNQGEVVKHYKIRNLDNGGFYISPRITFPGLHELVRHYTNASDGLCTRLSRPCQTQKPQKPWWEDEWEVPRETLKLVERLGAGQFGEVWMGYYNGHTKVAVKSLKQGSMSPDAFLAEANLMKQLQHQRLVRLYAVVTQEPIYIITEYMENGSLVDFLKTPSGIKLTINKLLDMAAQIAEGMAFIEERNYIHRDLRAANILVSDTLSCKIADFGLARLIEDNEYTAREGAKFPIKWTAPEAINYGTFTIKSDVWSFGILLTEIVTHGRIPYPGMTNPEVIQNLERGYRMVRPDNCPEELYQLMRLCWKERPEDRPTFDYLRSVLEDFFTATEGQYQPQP
T2 sequence (P07947 whole entry): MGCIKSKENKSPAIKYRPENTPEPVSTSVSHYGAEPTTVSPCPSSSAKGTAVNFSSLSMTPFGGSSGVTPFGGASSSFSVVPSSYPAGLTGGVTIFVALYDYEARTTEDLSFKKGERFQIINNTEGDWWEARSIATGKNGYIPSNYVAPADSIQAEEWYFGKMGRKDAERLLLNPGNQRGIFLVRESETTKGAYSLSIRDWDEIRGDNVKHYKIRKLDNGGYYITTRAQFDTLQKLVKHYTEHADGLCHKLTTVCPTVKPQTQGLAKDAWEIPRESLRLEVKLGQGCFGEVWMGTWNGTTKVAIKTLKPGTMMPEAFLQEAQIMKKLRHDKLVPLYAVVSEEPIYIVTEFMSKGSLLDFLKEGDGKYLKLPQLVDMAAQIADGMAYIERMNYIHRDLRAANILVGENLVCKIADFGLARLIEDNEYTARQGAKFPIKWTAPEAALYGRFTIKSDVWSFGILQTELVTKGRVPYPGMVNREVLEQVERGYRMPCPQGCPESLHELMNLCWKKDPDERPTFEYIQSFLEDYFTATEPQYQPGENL

Compound | pIC50 (human Lck enzyme; [1]) | pIC50 (human Yes1 enzyme; [1]) | pIC50 (human Src enzyme; [1]) | pIC50 (human Lck enzyme) | pIC50 (human Yes1 enzyme) | pIC50 (human Src enzyme)
Cc1cc(Oc2ccccc2F)ccc1-n1ncc(C(=O)c2cc3cc(F)c(NS(=O)(=O)NC(C)(C)CO)cc3[nH]2)c1N [Example 4-6-003, [5-amino-1-[4-(2-fluorophenoxy)-2-methylphenyl]pyrazol-4-yl]-[5-fluoro-6-[(1-hydroxy-2-methylpropan-2-yl)sulfamoylamino]-1H-indol-2-yl]methanone] | 7.66 | 8.64 | 7.06 | – | – | –
Cc1cc2cc(C(=O)c3cnn(-c4ccc(Oc5ccccc5F)cc4C)c3N)[nH]c2cc1N1C(=O)[C@@H]2C[C@H](NC(=O)OCC3c4ccccc4-c4ccccc43)CN2C1=O [Example 5-1-268, 9H-fluoren-9-ylmethyl N-[(6S,7aS)-2-[2-[5-amino-1-[4-(2-fluorophenoxy)-2-methylphenyl]pyrazole-4-carbonyl]-5-methyl-1H-indol-6-yl]-1,3-dioxo-5,6,7,7a-tetrahydropyrrolo[1,2-c]imidazol-6-yl]carbamate] | – | – | – | 7.51 | 7.92 | 6.92
Cc1cc(Oc2ccccc2F)ccc1-n1ncc(C(=O)c2cc3cc(F)c(NC4CCN(S(C)(=O)=O)CC4)cc3[nH]2)c1N [Example 5-1-135, [5-amino-1-[4-(2-fluorophenoxy)-2-methylphenyl]pyrazol-4-yl]-[5-fluoro-6-[(1-methylsulfonylpiperidin-4-yl)amino]-1H-indol-2-yl]methanone] | – | – | – | 8.28 | 9.08 | 7.92
Cc1cc2cc(C(=O)c3cnn(-c4cnc(Oc5c(F)cccc5F)cc4C)c3N)[nH]c2cc1N1C(=O)[C@@H]2CCCN2C1=O [Example 5-1-454, (7aS)-2-[2-[5-amino-1-[6-(2,6-difluorophenoxy)-4-methylpyridin-3-yl]pyrazole-4-carbonyl]-5-methyl-1H-indol-6-yl]-5,6,7,7a-tetrahydropyrrolo[1,2-c]imidazole-1,3-dione] | 8.29 | 8.77 | 7.40 | – | – | –
Cc1cc(Oc2ccccc2F)ccc1-n1ncc(C(=O)c2cc3cc(F)c(NS(=O)(=O)C4CC4)cc3[nH]2)c1N [Example 4-2-040, N-[2-[5-amino-1-[4-(2-fluorophenoxy)-2-methylphenyl]pyrazole-4-carbonyl]-5-fluoro-1H-indol-6-yl]cyclopropanesulfonamide] | 7.62 | 8.66 | 7.38 | – | – | –
Cc1cc(Oc2ccccc2F)ccc1-n1ncc(C(=O)c2cc3cc(F)c(NS(=O)(=O)c4cccnc4)cc3[nH]2)c1N [Example 5-1-489, N-[2-[5-amino-1-[4-(2-fluorophenoxy)-2-methylphenyl]pyrazole-4-carbonyl]-5-fluoro-1H-indol-6-yl]pyridine-3-sulfonamide] | 7.31 | 8.72 | 6.72 | – | – | –
Cc1cc(Oc2ccccc2F)ccc1-n1ncc(C(=O)c2cc3cc(F)c(NS(=O)(=O)c4cccc(F)n4)cc3[nH]2)c1N [Example 5-1-517, N-[2-[5-amino-1-[4-(2-fluorophenaxy)-2-methylphenyl]pyrazole-4-carbonyl]-5-fluoro-1H-indol-5-yl]-6-fluoropyridine-2-sulfonamide] | 7.47 | 8.68 | 6.52 | – | – | –
Cc1cc(Oc2ccccc2F)ccc1-n1ncc(C(=O)c2cc3cc(OCC(F)F)c(NS(=O)(=O)c4cccnc4)cc3[nH]2)c1N [Example 5-1-418, N-[2-[5-amino-1-[4-(2-fluorophenoxy)-2-methylphenyl]pyrazole-4-carbonyl]-5-(2,2-difluoroethoxy)-1H-indol-6-yl]pyridine-3-sulfonamide] | 7.68 | 8.85 | 7.11 | – | – | –
CC(C)N1CCC(c2cc3cc(C(=O)c4cnn(-c5ccc(Oc6ccccc6F)cc5)c4N)[nH]c3cc2F)CC1 [Example 5-1-004, [5-amino-1-[4-(2-fluorophenoxy)phenyl]pyrazol-4-yl]-[6-fluoro-5-(1-propan-2-ylpiperidin-4-yl)-1H-indol-2-yl]methanone] | – | – | – | 8.55 | 9.11 | 8.44
Cc1cc2cc(C(=O)c3cnn(-c4cnc(Oc5c(F)cccc5F)cc4C)c3N)[nH]c2cc1NS(=O)(=O)C1CCOC1 (stereo not drawn) [Example 5-1-281, N-[2-[5-amino-1-[6-(2,6-difluorophenoxy)-4-methylpyridin-3-yl]pyrazole-4-carbonyl]-5-methyl-1H-indol-6-yl]oxolane-3-sulfonamide] | – | – | – | 7.57 | 8.72 | 6.85
Cc1cc2cc(C(=O)c3cnn(-c4c(C)cc(Oc5ccccc5F)cc4F)c3N)[nH]c2cc1C1CCN(S(C)(=O)=O)CC1 [Example 5-1-111, [5-amino-1-[2-fluoro-4-(2-fluorophenoxy)-6-methylphenyl]pyrazol-4-yl]-[5-methyl-6-(1-methylsulfonylpiperidin-4-yl)-1H-indol-2-yl] methanone] | – | – | – | 7.85 | 7.85 | 7.34
Cc1cc(Oc2c(F)cccc2F)ncc1-n1ncc(C(=O)c2cc3cc(F)c(N4C(=O)NC5(COC5)C4=O)cc3[nH]2)c1N [Example 5-1-345, 7-[2-[5-amino-1-[6-(2,6-difluorophenoxy)-4-methylpyridin-3-yl]pyrazole-4-carbonyl]-5-fluoro-1H-indol-6-yl]-2-oxa-5,7-diazaspiro[3.4] octane-6,8-dione] | – | – | – | 8.49 | 8.80 | 7.33
Cc1cc(Oc2ccccc2F)ncc1-n1ncc(C(=O)c2cc3cc(OCC(F)F)c(N4CCC(N5CCOCC5)CC4)cc3[nH]2)c1N [Example 4-25-026, {5-amino-1-[6-(2-fluorophenoxy)-4-methylpyridin-3-yl]pyrazol-4-yl}-[5-(2,2-difluoroethoxy)-6-(4-morpholin-4-ylpiperidin-1-yl)-1H-indol-2-yl]methanone] | 8.80 | 9.04 | 7.92 | – | – | –
Cc1cc(Oc2c(F)cccc2F)ncc1-n1ncc(C(=O)c2cc3cc(OC4CCN(C5CCCC5)CC4)c(Br)cc3[nH]2)c1N [Example 5-1-223, [5-amino-1-[6-(2,6-difluorophenoxy)-4-methylpyridin-3-yl]pyrazol-4-yl]-[6-bromo-5-(1-cyclopentylpiperidin-4-yl)oxy-1H-indol-2-yl] methanone] | – | – | – | 8.14 | 8.82 | 8.13
Cc1cc(Oc2ccccc2F)ncc1-n1ncc(C(=O)c2cc3cc(OCC(F)F)c(N4CCCS4(=O)=O)cc3[nH]2)c1N [Example 4-25-001, {5-amino-1-[6-(2-fluorophenoxy)-4-methylpyridin-3-yl]pyrazol-4-yl}-[5-(2,2-difluoroethoxy)-6-(1,1-dioxo-1,2-thiazolidin-2-yl)-1H-indol-2-yl]methanone] | 8.02 | 8.80 | 7.54 | – | – | –
COc1cc2cc(C(=O)c3cnn(-c4ccc(Oc5ccccc5F)cc4C)c3N)[nH]c2cc1NS(=O)(=O)CC(=O)N1CCOCC1 [Example 4-10-012, N-[2-[5-amino-1-[4-(2-fluorophenoxy)-2-methylphenyl]pyrazole-4-carbonyl]-5-methoxy-1H-indol-6-yl]-2-morpholin-4-yl-2-oxoethanesulfonamide] | 8.29 | 9.52 | 8.01 | – | – | –
Cc1cc(Oc2ccccc2F)ncc1-n1ncc(C(=O)c2cc3cc(N4CCOCC4)c(NS(=O)(=O)CCCF)cc3[nH]2)c1N [Example 4-24-016, N-[2-[5-amino-1-[6-(2-fluorophenoxy)-4-methylpyridin-3-yl]pyrazole-4-carbonyl]-5-morpholin-4-yl-1H-indol-6-yl]-3-fluoropropane-1-sulfonamide] | 7.49 | 9.06 | 7.11 | – | – | –
Cc1cc(Oc2cccc(F)c2)ncc1-n1ncc(C(=O)c2cc3cc(F)c(NS(=O)(=O)C4CC4)cc3[nH]2)c1N [Example 4-2-048, N-[2-[5-amino-1-[6-(3-fluorophenoxy)-4-methylpyridin-3-yl]pyrazole-4-carbonyl]-5-fluoro-1H-indol-6-yl]cyclopropanesulfonamide] | 7.10 | 7.92 | 6.54 | – | – | –
Cc1cc2cc(C(=O)c3cnn(-c4cnc(Oc5c(F)cccc5F)cc4C)c3N)[nH]c2cc1NS(=O)(=O)c1cc(F)cc(F)c1 [Example 5-1-561, N-[2-[5-amino-1-[6-(2,6-difluorophenoxy)-4-methylpyridin-3-yl]pyrazole-4-carbonyl]-5-methyl-1H-indol-6-yl]-3,5-difiuorobenzenesulfonamide] | 6.57 | 7.77 | 6.03 | – | – | –
Cc1cc(Oc2c(F)cccc2F)ncc1-n1ncc(C(=O)c2cc3cc(F)c(N4C(=O)N[C@@H](Cc5ccccc5)C4=O)cc3[nH]2)c1N [Example 5-1-430, (5S)-3-[2-[5-amino-1-[6-(2,6-difluorophenoxy)-4-methylpyridin-3-yl]pyrazole-4-carbonyl]-5-fluoro-1H-indol-6-yl]-5-benzylimidazolidine-2,4-dione] | 7.43 | 8.08 | 6.55 | – | – | –
Cc1cc(Oc2ccccc2F)ncc1-n1ncc(C(=O)c2cc3cc(N(CCN4CCOCC4)S(C)(=O)=O)c(O)cc3[nH]2)c1N [Example 4-2-130] | 8.35 | 8.85 | 7.47 | – | – | –
Cc1cc(Oc2ccccc2F)ccc1-n1ncc(C(=O)c2cc3cc(OCC(F)F)c(C4CCN(S(=O)(=O)C5CC5)CC4)cc3[nH]2)c1N [Example 4-17-016, [5-amino-1-[4-(2-fluorophenoxy)-2-methylphenyl]pyrazol-4-yl]-[6-(1-cyclopropylsulfonylpiperidin-4-yl)-5-(2,2-difluoroethoxy)-1H-indol-2-yl]methanone] | 7.92 | 8.19 | 7.82 | – | – | –
